# Test results as given in patent US9617276B2, “Compounds and methods for treating AIDS and HIV infections” (priority 2009, dated 2017).
# Like-named read-outs stand apart in the source and are kept apart here.
# Experiments:
# HIV-1 protease = target: T1, HIV-1 protease (Human immunodeficiency virus type 1 group M subtype B, UniProt P04585); test: HIV protease enzyme inhibition, fluorometric assay of Toth and Marshall; type: biochemical; details: Table 4; read-out: Ki
# T1 construct: A simple, continuous fluorometric assay for HIV protease
# Protocol: (§1) The inhibitory potencies of acyclic and cyclic inhibitors were measured by the assay protocol of Toth and Marshall (Toth, M. V.; Marshall, G. R. A simple, continuous fluorometric assay for HIV protease. Int. J. Pep. Protien Res. 1990, 36, 544-55).
# HIV-1 = test: antiviral assay (IC50); type: cell-based; details: read-out: IC50
# Protocol: as §1
# HIV-1NL4-3 = test: p24 Gag inhibition in MT-4 cells, HIV-1NL4-3; type: cell-based
# Protocol: All assays were performed in duplicate or triplicate. […] All assays were performed in duplicate or triplicate.
# HIV-1396-1μM = test: microbe, parasite or virus in culture; type: cell-based, HIV-1; details: Human immunodeficiency virus 1, MT4, read-out: EC50 (μM), HIV-1396-1 μM
# Protocol: (§2) Briefly, MT-2 cells (2×10^4/ml) were exposed to 100 50% tissue culture infectious doses (TCID50S) of HIV-1LAI, in the presence or absence of various concentrations of drugs in 96-well microculture plates and were incubated at 37° C. for 7 days. After 100 μl of the medium was removed from each well, 3-(4,5-dimetylthiazol-2-yl)-2,5-diphenyltetrazolium bromide (MTT) solution (10 μl, 7.5 mg/ml in phosphate-buffered saline) was added to each well in the plate, followed by incubation at 37° C. for 3 h. […] All assays were performed in duplicate or triplicate. […] To determine the drug susceptibility of certain laboratory HIV-1 strains, MT-4 cells were used as target cells. In brief, MT-4 cells (10^5/ml) were exposed to 100 TCID50S of drug-resistant HIV-1 strains in the presence or absence of various concentrations of drugs and on day 7 of culture, the supernatant was harvested and the amounts of p24 Gag protein were determined. […] All assays were performed in duplicate or triplicate.
# (§3) Numbers in parentheses represent n-fold changes in EC50s for each isolate compared to the EC50s for wild-type HIV-1NL4-3.
# HIV-1216-P50 = test: microbe, parasite or virus in culture; type: cell-based, HIV-1; details: Human immunodeficiency virus 1, MT4, read-out: EC50 (μM), HIV-1216-p50
# Protocol: as §2, §3
# HIV-1246-1μM = test: microbe, parasite or virus in culture; type: cell-based, HIV-1; details: Human immunodeficiency virus 1, MT4, read-out: EC50 (μM), HIV-1246-1 μM
# Protocol: as §2, §3
# HIV-1LPV5μM = test: microbe, parasite or virus in culture; type: cell-based; details: for EC50: Human immunodeficiency virus 1, MT4, read-out: EC50 (μM), HIV-1LPV5 μM
# Protocol: (§4) The susceptibility of HIV-1LAI and primary HIV-1 isolates to various drugs were determined as described previously (Koh et al. 2003 Antimicrob Agents Chemother 47:3123-9). Briefly, MT-2 cells (2×10^4/ml) were exposed to 100 50% tissue culture infectious doses (TCID50S) of HIV-1LAI, in the presence or absence of various concentrations of drugs in 96-well microculture plates and were incubated at 37° C. for 7 days. After 100 μl of the medium was removed from each well, 3-(4,5-dimetylthiazol-2-yl)-2,5-diphenyltetrazolium bromide (MTT) solution (10 μl, 7.5 mg/ml in phosphate-buffered saline) was added to each well in the plate, followed by incubation at 37° C. for 3 h. […] All assays were performed in duplicate or triplicate. To determine the susceptibility of primary HIV-1 isolates to drugs, phytohemagglutinin-activated peripheral blood mononuclear cells (PHA-PBMCs; 106/ml) were exposed to 50 TCID50S of each. The target cells were exposed to HIV-1104pre or drug-resistant HIV-1 in the presence or absence of various concentrations of drugs and were incubated for 7 days. Upon the conclusion of the culture, the amounts of p24 Gag protein in the supernatants were determined using a fully automated chemiluminescent enzyme immunoassay system (Lumipulse F; Fujirebio Inc., Tokyo, Japan) (Maeda et al. 2001 J Biol Chem 276:35194-200). To determine the drug susceptibility of certain laboratory HIV-1 strains, MT-4 cells were used as target cells. In brief, MT-4 cells (10^5/ml) were exposed to 100 TCID50S of drug-resistant HIV-1 strains in the presence or absence of various concentrations of drugs and on day 7 of culture, the supernatant was harvested and the amounts of p24 Gag protein were determined. […] All assays were performed in duplicate or triplicate.
# as §3
# HIV-1APV5μM = test: microbe, parasite or virus in culture; type: cell-based; details: for EC50: Human immunodeficiency virus 1, MT4, read-out: EC50 (μM), HIV-1APV5 μM
# Protocol: as §4, §3
# HIV-1AZV5μM = test: microbe, parasite or virus in culture; type: cell-based; details: for EC50: Human immunodeficiency virus 1, MT4, read-out: EC50 (μM), HIV-1AZV5 μM
# Protocol: as §4, §3
# HIV-1NFV5μM = test: microbe, parasite or virus in culture; type: cell-based; details: for EC50: Human immunodeficiency virus 1, MT4, read-out: EC50 (μM), HIV-1NPV5 μM
# Protocol: as §4, §3
# HIV-1SQV5μM = test: microbe, parasite or virus in culture; type: cell-based; details: for EC50: Human immunodeficiency virus 1, MT4, read-out: EC50 (μM), HIV-1SQV5 μM
# Protocol: as §4, §3
# [1] = system: HIV-1ERS104pre (wild-type); test: p24 Gag inhibition in PHA-PBMCs, HIV-1ERS104pre; type: cell-based; details: mean ± 1 SD
# Protocol: as §4
# (§5) These clinical strains contained 9 to 14 amino acid substitutions in the protease-encoding region, which have reportedly been associated with HIV-1 resistance to various PIs.
# (§6) Amino acid substitutions identified in the protease-encoding region compared to the consensus type B sequence cited from the Los Alamos database include L63P in HIV-1ERS104pre; L10I, K14R, L33I, M36I, M46I, F53I, K55R, I62V, L63P, A71V, G73S, V82A, L90M, and I93L in HIV-1MDR/B; L10I, I15V, K20R, L24I, M36I, M46L, I54V, I62V, L63P, K70Q, V82A, and L89M in HIV-1MDR/C; L10I, V11I, T12E, I15V, L19I, R41K, M46L, L63P, A71T, V82A, and L90M in HIV-1MDR/G; L10I, K14R, R41K, M46L, I54V, L63P, A71V, V82A, L90M, I93L in HIV-1MDR/TM; L10I, K43T, M46L, I54V, L63P, A71V, V82A, L90M, and Q92K in HIV-1MDR/MM; L10I, L24I, I33F, E35D, M36I, N37S, M46L, I54V, R57K, I62V, L63P, A71V, G73S, and V82A in HIV-1MDR/JSL. HIV-1ERS104pre served as a source of wild-type HIV-1. EC50s were determined by using PHA-PBMs as target cells, and inhibition of p24 Gag protein production by each drug was used as an end point. Numbers in parentheses represent n-fold changes of EC50s for each isolate compared to EC50s for wild-type HIV-1ERS104pre.
# HIV-1MDR/B = type: cell-based
# Protocol: as §4, §5, §6
# HIV-1MDR/C = type: cell-based
# Protocol: as §4, §5, §6
# HIV-1MDR/G = type: cell-based
# Protocol: as §4, §5, §6
# HIV-1MDR/TM = type: cell-based
# Protocol: as §4, §5, §6
# HIV-1MDR/JSL = test: microbe, parasite or virus in culture; type: cell-based
# Protocol: as §4, §5, §6
# HIV-1MDR/MM = test: microbe, parasite or virus in culture; type: cell-based
# Protocol: as §4, §5, §6
# [2] = compared to wild-type HIV-1ERS104pre
# [3] = compared to wild-type HIV-1NL4-3
smiles,measurement,setting,value
COc1ccc2c(c1)OCCCCC=CCC(C)CN(CC(O)C(Cc1ccccc1)NC(=O)OC1COC3OCCC13)S2(=O)=O (centres unmarked) [Compound 21c],Ki,HIV-1 protease,< 1 nM
same,IC50,HIV-1; Table 4,< 100 nM
COc1ccc2c(c1)OCCCCCCCC(C)(C)CN(CC(O)C(Cc1ccccc1)NC(=O)OC1COC3OCCC13)S2(=O)=O (centres unmarked) [Compound 22a],Ki,HIV-1 protease,< 10 nM
same,IC50,"HIV-1; Human immunodeficiency virus 1, Table 4",> 1000 nM
COc1ccc2c(c1)OCCCCCCCC(C)CN(CC(O)C(Cc1ccccc1)NC(=O)OC1COC3OCCC13)S2(=O)=O (centres unmarked) [Compound 22b],Ki,HIV-1 protease,< 1 nM
same,IC50,HIV-1; Table 4,< 1000 nM
COc1ccc2c(c1)OCCCCCCCC(C)CN(CC(O)C(Cc1ccccc1)NC(=O)OC1COC3OCCC13)S2(=O)=O (centres unmarked) [Compound 22c],Ki,HIV-1 protease,< 1 nM
same,IC50,HIV-1; Table 4,< 100 nM
"Cc1c(O)cccc1C(=O)N[C@@H](CSc1ccccc1)[C@H](O)CN1C[C@H]2CCCC[C@H]2C[C@H]1C(=O)NC(C)(C)C [NFV, Nelfinavir]",EC50,"HIV-1NL4-3; Human immunodeficiency virus 1, MT4, Table 9, mean ± 1 SD, read-out: EC50 (μM), HIV-1NL4-3",0.04 ± 0.007 µM
same,EC50,HIV-1396-1μM,0.22 ± 0.02 µM
same,EC50,HIV-1216-P50,0.13 ± 0.04 µM
same,EC50,HIV-1246-1μM,0.29 ± 0.006 µM
same,EC50,HIV-1LPV5μM,0.32 ± 0.12 µM
same,EC50,HIV-1APV5μM,0.3 ± 0.03 µM
same,EC50,HIV-1AZV5μM,> 1 µM
same,EC50,HIV-1NFV5μM,> 1 µM
same,EC50,HIV-1SQV5μM,0.51 ± 0.081 µM
"CC(C)(C)NC(=O)[C@@H]1C[C@@H]2CCCC[C@@H]2CN1C[C@@H](O)[C@H](Cc1ccccc1)NC(=O)[C@H](CC(N)=O)NC(=O)c1ccc2ccccc2n1 [SQV, Saquinavir]","EC50 (μM), HIV-1ERS104pre (wild-type SI)",[1],0.008 ± 0.005 µM
same,"EC50 (μM), HIV-1MDR/B (SI)","HIV-1MDR/B; PHA-PBMCs, p24 Gag",0.27 ± 0.073 µM
same,"n-fold change of EC50, HIV-1MDR/B",HIV-1MDR/B; [2],(34)
same,"EC50 (μM), HIV-1MDR/C (SI)","HIV-1MDR/C; PHA-PBMCs, p24 Gag",0.032 ± 0.002 µM
same,"n-fold change of EC50, HIV-1MDR/C",HIV-1MDR/C; [2],(11)
same,"EC50 (μM), HIV-1MDR/G (SI)","HIV-1MDR/G; PHA-PBMCs, p24 Gag",0.030 ± 0.002 µM
same,"n-fold change of EC50, HIV-1MDR/G",HIV-1MDR/G; [2],(4)
same,"EC50 (μM), HIV-1MDR/TM (SI)","HIV-1MDR/TM; PHA-PBMCs, p24 Gag",0.26 ± 0.04 µM
same,"n-fold change of EC50, HIV-1MDR/TM",HIV-1MDR/TM; [2],(33)
same,EC50,"HIV-1NL4-3; Human immunodeficiency virus 1, MT4, read-out: EC50 (μM), HIV-1NL4-3, Table 7, mean ± 1 SD",0.005 ± 0.002 µM
same,EC50,"HIV-1MDR/JSL; Human immunodeficiency virus 1, read-out: EC50 (μM), HIV-1MDR/JSL (NSI)",0.3 ± 0.02 µM
same,"n-fold change of EC50, HIV-1MDR/JSL",HIV-1MDR/JSL; [2],(37)
same,EC50,"HIV-1MDR/MM; Human immunodeficiency virus 1, read-out: EC50 (μM), HIV-1MDR/MM (NSI)",0.19 ± 0.05 µM
same,"n-fold change of EC50, HIV-1MDR/MM",HIV-1MDR/MM; [2],(24)
same,EC50,HIV-1LPV5μM,0.028 ± 0.007 µM
same,"n-fold change in EC50, HIV-1LPV5 μM",HIV-1LPV5μM; [3],(6)
same,EC50,HIV-1APV5μM,0.026 ± 0.01 µM
same,"n-fold change in EC50, HIV-1APV5 μM",HIV-1APV5μM; [3],(5)
same,EC50,HIV-1AZV5μM,0.031 ± 0.005 µM
same,"n-fold change in EC50, HIV-1AZV5 μM",HIV-1AZV5μM; [3],(6)
same,EC50,HIV-1NFV5μM,0.003 ± 0.002 µM
same,"n-fold change in EC50, HIV-1NPV5 μM",HIV-1NFV5μM; [3],(1)
same,EC50,HIV-1SQV5μM,> 1 µM
same,"n-fold change in EC50, HIV-1SQV5 μM",HIV-1SQV5μM; [3],> 200
